Measured values published in patent US20100286186A1, “NOVEL DICARBOXYLIC ACID LINKED AMINO ACID AND PEPTIDE PRODRUGS OF OPIOIDS AND USES THEREOF” (Shire LLC, priority 2009, published 2010).
“And” between values parts separate entries of the source, which are not always exact repeats. Equal entries are not always repeated. Marks after values point to notes of the source that are not given here.

What was measured:
[1] = Bioavailability of oxycodone, codeine and dihydrocodeine from their succinyl valine ester prodrugs in the dog (oral gavage, two-way crossover); conditions: dogs, oral gavage; for T>50%Cmax of dihydrocodeine: 1 mg free base equivalents dihydrocodeine/kg; for T>50%Cmax of codeine: 1 mg free base equivalents codeine/kg
Method: The characteristics of the test animals are set out in Table 10, below.
Blood samples were taken at various times after administration and submitted to analysis for the parent drug and pro-drug using a validated LC-MS-MS assay. Pharmacokinetic parameters derived from the plasma analytical data were determined using Win Nonlin.

[2] = test system: gut motility in the rat; assay: Charcoal propulsion test of GI motility in the rat; type: in vivo; conditions: oral
Method: Test treatments were administered to groups of up to 10 rats fasted overnight prior to the test.
Test treatments were administered orally 60 minutes prior to a 2.0 mL oral dose of a 10% suspension of charcoal in 5% gum arabic. Thirty minutes after dosing with charcoal, the rats were sacrificed and the entire gastro-intestinal tract quickly and carefully removed. The distance the charcoal meal had traveled from the pyloric sphincter toward the caecum was measured and expressed as a percentage of both the total gut length and the length of the small intestine.

[3] = In vitro stability of dicarboxylate amino acid ester prodrugs in simulated gastric and intestinal juice, distilled water and pH 10 buffer (HPLC); conditions: for Simulated gastric fluid (pH 1.1): % remaining after 2 h/37° C.: pH 1.1, 2 h; for Distilled water (pH 5.9): % remaining after 2 h/20° C.: pH 5.9, 2 h; for Simulated intestinal fluid (pH 6.8): % remaining after 2 h/37° C.: pH 6.8, 2 h; for pH 10.0 buffer: % remaining after 2 h/20° C.: pH 10.0, 2 h
[4] = Stability of meptazinol dicarboxylate bridged amino acid prodrugs in simulated gastric and intestinal juice and pH 7.4 buffer; type: physicochemical; conditions: for 2 h stability in pH7.4 buffer (37° C.), Conversion to meptazinol: pH 7.4 buffer
Description: Initially the inherent chemical and biological stability of various dicarboxylate bridged amino acid prodrugs of meptazinol, was investigated under the conditions prevailing in the GI tract. Premature hydrolysis of the prodrug in the gut lumen prior to absorption would reduce the opportunity for transient protection of the drug during its passage though the liver and the desired reduction in first pass metabolism.
The remaining concentrations of the prodrug (and also drug released) were then assayed by HPLC. Additionally their chemical stability was evaluated in pH 7.4 buffer for 2 h 37° C.

[5] = Plasma pharmacokinetics of meptazinol dicarboxylate linked prodrugs after oral gavage to dogs; type: in vivo, dog; conditions: dog, 1 mg meptazinol base equivalents/kg; for systemic levels of meptazinol versus expected Cmax after the drug itself: oral gavage; for Dog Cmax (plasma meptazinol) / Dog Cmax (plasma prodrug levels, in brackets): oral gavage of prodrug; for Dog Cmax (plasma meptazinol): meptazinol level; for Dog Cmax (plasma prodrug levels, in brackets): prodrug level, BLQ = below 0.5 ng/mL
[6] = Plasma pharmacokinetics of meptazinol dicarboxylate linked prodrugs after oral gavage to cynomolgus monkeys; type: in vivo, cynomolgus monkey; conditions: 1 mg meptazinol base equivalents/kg; for Monkey Cmax (plasma meptazinol) / Monkey Cmax (plasma prodrug levels, in brackets): cynomolgus monkey, oral gavage of prodrug; for Monkey Cmax (plasma meptazinol): meptazinol level; for Monkey Cmax (plasma prodrug levels, in brackets): prodrug level, BLQ = below 0.5 ng/mL; for improvement in systemic levels of meptazinol: monkey, oral gavage
[7] = Comparative oral bioavailability of oxycodone from various dicarboxylate bridged amino acid prodrugs in dogs (nine-way crossover); type: in vivo, dog; conditions: 1 mg/kg oxycodone free base, mean (±sd)
[8] = Comparative pharmacokinetics of oxycodone in the cynomolgus monkey after oral administration; conditions: for T>50%Cmax of oxycodone: oral
[9] = simulated intestinal fluid, 2 h

| SMILES | 2 h stability in pH7.4 buffer (37° C.), Conversion to meptazinol ([4]; 2 h) | 1 h stability in simulated gastric fluid (37° C.), Conversion to meptazinol [4] | 2 h stability in simulated intestinal fluid (37° C.), Conversion to meptazinol [4, 9] | Dog Cmax (plasma meptazinol) [5] | Dog Cmax (plasma prodrug levels, in brackets) [5] | Monkey Cmax (plasma meptazinol) [6] | Monkey Cmax (plasma prodrug levels, in brackets) [6] | other results |
| --- | --- | --- | --- | --- | --- | --- | --- | --- |
| COc1ccc2c3c1O[C@H]1[C@@H](OC(=O)CCC(=O)NC(C(=O)O)C(C)C)CCC4[C@@H](C2)N(C)CC[C@@]341 (stereo in doubt) [dihydrocodeine-[succinyl-(S)-valine]ester] | – | – | – | – | – | – | – | T>50%Cmax of dihydrocodeine ([1]; individual dogs 1-5): 3 h (2×) and 2 h and 1 h (2×); T>50%Cmax of dihydrocodeine ([1]; median (n=5)): 2^a h; % change from vehicle-treated animals, small intestine ([2]; 10 mg/kg): −17.4%; % change from vehicle-treated animals, total gut length ([2]; 10 mg/kg): −16.6%; % change from vehicle-treated animals, small intestine ([2]; 30 mg/kg): −8.5%; % change from vehicle-treated animals, total gut length ([2]; 30 mg/kg): −8.5%; % change from vehicle-treated animals, small intestine ([2]; 100 mg/kg): −13.3%; % change from vehicle-treated animals, total gut length ([2]; 100 mg/kg): −12.9%; % change from vehicle-treated animals, small intestine ([2]; 300 mg/kg): −35.7%; % change from vehicle-treated animals, total gut length ([2]; 300 mg/kg): −35.3%; Simulated gastric fluid (pH 1.1): % remaining after 2 h/37° C. [3]: 100%; Distilled water (pH 5.9): % remaining after 2 h/20° C. [3]: 100%; Simulated intestinal fluid (pH 6.8): % remaining after 2 h/37° C. [3]: 100%; pH 10.0 buffer: % remaining after 2 h/20° C. [3]: 98% |
| COc1ccc2c3c1O[C@H]1[C@@H](O)C=C[C@H]4[C@@H](C2)N(C)CC[C@@]341.Cl [Codeine HCl, reference compound] | – | – | – | – | – | – | – | T>50%Cmax of codeine ([1]; individual dogs 1-5, HCl): 1.5 h (3×) and 0.5 h (2×); T>50%Cmax of codeine ([1]; median (n=5)): 1.5^a h |
| COc1ccc2c3c1O[C@H]1[C@@H](OC(=O)CCC(=O)N[C@H](C(=O)O)C(C)C)C=CC4[C@@H](C2)N(C)CC[C@@]341 (stereo partly drawn) [Codeine-[succinyl-(S)-valine] ester, codeine-[succinyl-(S)-valine]ester] | – | – | – | – | – | – | – | T>50%Cmax of codeine ([1]; individual dogs 1-5): 2 h (4×) and 1 h; T>50%Cmax of codeine ([1]; median (n=5)): 2^a h; % change from vehicle-treated animals, small intestine ([2]; 10 mg/kg): −9.7%; % change from vehicle-treated animals, total gut length ([2]; 10 mg/kg): −9.3%; % change from vehicle-treated animals, small intestine ([2]; 30 mg/kg): −15.7%; % change from vehicle-treated animals, total gut length ([2]; 30 mg/kg): −15.1%; % change from vehicle-treated animals, small intestine ([2]; 100 mg/kg): −16.4%; % change from vehicle-treated animals, total gut length ([2]; 100 mg/kg): −15.6%; Simulated gastric fluid (pH 1.1): % remaining after 2 h/37° C. [3]: 99%; Distilled water (pH 5.9): % remaining after 2 h/20° C. [3]: 100%; Simulated intestinal fluid (pH 6.8): % remaining after 2 h/37° C. [3]: 98%; pH 10.0 buffer: % remaining after 2 h/20° C. [3]: 92% |
| CCC1(c2cccc(OC(=O)CC(C)(C)CC(=O)Nc3ccc(C(=O)O)cc3)c2)CCCCN(C)C1 (stereo not drawn) [Meptazinol [3,3-dimethyl-glutaryl-PABA]ester] | 93% | 1% | 5% | 9.4 ng/mL | 25 ng/mL | 1.3 ng/mL | BLQ | systemic levels of meptazinol versus expected Cmax after the drug itself [5]: improved systemic levels of meptazinol; improvement in systemic levels of meptazinol [6]: not seen in the monkey |
| CCC1(c2cccc(OC(=O)C=CC(=O)Nc3ccc(C(=O)O)cc3)c2)CCCCN(C)C1 (stereo not drawn) [Meptazinol [fumaryl-PABA] ester] | 47% | 2% | 6% | 1.5 ng/mL | BLQ | 1.4 ng/mL | BLQ | – |
| CCC1(c2cccc(OC(=O)CCCC(=O)Nc3ccc(C(=O)O)cc3)c2)CCCCN(C)C1 (stereo not drawn) [Meptazinol [glutaryl-PABA] ester] | 80% | 5% | 6% | 3.4 ng/mL | 6.7 ng/mL | 1.5 ng/mL | 1.7 ng/mL | – |
| CCC1(c2cccc(OC(=O)C(C)(C)CC(=O)N[C@H](C(=O)O)C(C)C)c2)CCCCN(C)C1 (stereo partly drawn) [Meptazinol-[2,2-dimethylsuccinyl-(S)-valine] ester] | 2% | – | 3% | 0.9 ng/mL | 25 ng/mL | 0.4 ng/mL | 100 ng/mL | – |
| CCC1(c2cccc(OC(=O)CC(C)(C)CC(=O)NCC(=O)O)c2)CCCCN(C)C1 (stereo not drawn) [Meptazinol-[3,3-dimethylglutaryl-glycine] ester] | 2% | 4% | 4% | 0.5 ng/mL | 29 ng/mL | 1.1 ng/mL | 18 ng/mL | – |
| CCC1(c2cccc(OC(=O)CCC(=O)N3CCC[C@H]3C(=O)O)c2)CCCCN(C)C1 (stereo partly drawn) [Meptazinol-[succinyl-(S)-proline] ester] | 4% | 4% | 4% | 0.7 ng/mL | 36 ng/mL | 2.0 ng/mL | 16 ng/mL | – |
| COc1ccc2c3c1O[C@H]1C(OC(=O)CCCC(=O)N[C@@H](CC(C)C)C(=O)O)=CC[C@@]4(O)[C@@H](C2)N(C)CC[C@]314 [Oxycodone-Glutaryl-Leu Enol Ester, oxycodone-[glutaryl-(S)-leucine] enol ester] | – | – | – | – | – | – | – | T50% Cmax of oxycodone [7]: 3.4 (±0.7) h.; Cmax of intact prodrug ([8]; male cynomolgus monkeys, oral prodrug, 1 mg oxycodone free base equivalents/kg, individual monkeys 1-5): BLQ; T>50%Cmax of oxycodone ([8]; male cynomolgus monkeys, 1 mg oxycodone free base equivalents/kg, individual monkeys 1-5): 2.33 h and 2.40 h and 3.13 h and 4.66 h and 1.80 h; T>50%Cmax of oxycodone ([8]; male cynomolgus monkeys, 1 mg oxycodone free base equivalents/kg, mean (n=5)): 2.86 h; T>50%Cmax of oxycodone ([8]; male cynomolgus monkeys, 1 mg oxycodone free base equivalents/kg, mean (n=5), listed as OGLE): 2.9 h; prodrug levels in plasma ([8]; monkeys, oral prodrug): below the limit of quantification; Simulated gastric fluid (pH 1.1): % remaining after 2 h/37° C. [3]: 98%; Simulated intestinal fluid (pH 6.8): % remaining after 2 h/37° C. [3]: 79% |
| COc1ccc2c3c1O[C@H]1[C@@H](O)C=C[C@H]4[C@@H](C2)N(C)CC[C@@]341 [codeine, reference compound] | – | – | – | – | – | – | – | T>50%Cmax of codeine ([1]; median (n=5)): 1.2 h; delay of the passage of the charcoal meal (gut motility) ([2]; 30 mg/kg or equimolar dose): greater than 30% |
| CCC1(c2cccc(OC(=O)c3ccccc3C(=O)N[C@@H](Cc3ccccc3)C(=O)O)c2)CCCCN(C)C1.O=C(O)C(F)(F)F (stereo partly drawn) [meptazinol [phthalyl-(S)-phenylalanine]ester trifluoroacetate] | 72% | 3% | 30% | 9.1 ng/mL | 71 ng/mL | – | BLQ | degradation in 2 h in simulated intestinal fluid ([4]; simulated intestinal fluid, 2 h, 37° C.): ~30%; systemic levels of meptazinol versus expected Cmax after the drug itself [5]: improved systemic levels of meptazinol; improvement in systemic levels of meptazinol [6]: not seen in the monkey |
